Experimental data published in patent publication US11666584B2, “Steroidal hormones for the treatment and prevention of wave burst arrhythmia” (ASSISTANCE PUBLIQUE—HOPITAUX DE PARIS, priority 2016, dated 2023).
Read-outs that look alike come from different tables or passages of the source.

Experiments:
IKr potassium channel [1] = target: T1, IKr potassium channel (Homo sapiens, UniProt Q12809)
Method: Statistics: ns represents p>0.1. Various tests (Chi^2 test with trend, one-way ANOVA with Tukey or Kruskal-Wallis post-test with Dunn's post-test) were used. The quantitative data are presented as a mean±standard error or median with interquartile range.
The PC1 value is obtained by analysis by main components of the variables ΔQTc (%), ΔTpTe (%) and ΔTAmp (%) and quantitatively reflects the IKr inhibition obtained three hours after taking sotalol.
The ΔQTcF, ΔTpTe and ΔTAmp were also calculated.

[2] = characteristic of the pill's progestogen; cited from earlier work
[3] = target: T2, androgen receptor (NR3C4) (Homo sapiens, UniProt P10275); details: characteristic of the progestogen; cited from earlier work
T2 sequence (P10275 1-920): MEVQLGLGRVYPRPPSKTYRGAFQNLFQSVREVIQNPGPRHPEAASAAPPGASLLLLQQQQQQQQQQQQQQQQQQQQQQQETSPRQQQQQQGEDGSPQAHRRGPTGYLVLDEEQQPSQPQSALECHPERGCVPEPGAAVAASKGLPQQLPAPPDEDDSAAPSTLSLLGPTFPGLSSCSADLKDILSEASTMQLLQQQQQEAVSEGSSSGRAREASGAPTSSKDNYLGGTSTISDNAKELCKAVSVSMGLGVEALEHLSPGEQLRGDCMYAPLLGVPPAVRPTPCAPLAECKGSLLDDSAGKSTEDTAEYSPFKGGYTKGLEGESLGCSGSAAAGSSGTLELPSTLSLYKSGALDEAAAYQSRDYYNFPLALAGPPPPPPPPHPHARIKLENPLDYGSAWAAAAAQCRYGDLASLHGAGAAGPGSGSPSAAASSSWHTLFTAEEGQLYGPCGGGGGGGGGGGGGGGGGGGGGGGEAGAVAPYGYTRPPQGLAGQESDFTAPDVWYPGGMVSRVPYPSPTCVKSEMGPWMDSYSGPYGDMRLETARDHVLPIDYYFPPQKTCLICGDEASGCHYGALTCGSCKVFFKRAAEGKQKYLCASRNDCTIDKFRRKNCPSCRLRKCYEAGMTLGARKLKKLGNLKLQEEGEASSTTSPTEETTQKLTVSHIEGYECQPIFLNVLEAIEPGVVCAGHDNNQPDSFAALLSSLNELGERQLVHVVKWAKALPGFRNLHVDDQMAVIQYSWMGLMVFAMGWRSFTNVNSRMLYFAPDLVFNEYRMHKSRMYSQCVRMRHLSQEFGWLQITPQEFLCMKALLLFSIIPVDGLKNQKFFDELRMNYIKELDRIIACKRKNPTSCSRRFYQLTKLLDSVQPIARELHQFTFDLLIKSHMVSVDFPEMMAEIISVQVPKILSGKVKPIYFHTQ

[4] = system: transgenic rabbits with a long QT interval; details: cited from earlier work
IKr potassium channel [5] = target: T1, IKr potassium channel; assay: ECG changes three hours after a single oral dose of 80 mg sotalol in healthy volunteers (Example 1); type: in vivo; design: from tissue; host or cells: heart of living human volunteers (in vivo ECG); details: for decrease in TAmp / increase in TpTe: H3 after 80 mg sotalol vs basal; for subjects exhibiting a double peak (notch) / subjects exhibiting a double peak (notch), proportion: after 80 mg sotalol
Method: Results obtained on a cohort of 995 volunteers in good health, from 18 to 60 years old, of European or North African origin, were used for the development of a marker representative of inhibition of the IKr potassium channel.
Briefly, the electrocardiogram (ECG) of the patients (each one in triplicate, for 10 seconds) was recorded after 10 minutes at rest lying on their back. A single oral dose of 80 mg of sotalol was then given to the patients and the ECG monitoring was continued. Three hours after the sotalol had been taken, the ECG was again recorded (in triplicate) after the subjects had remained lying on their back for 10 minutes.
The QTcF (QT corrected using Fridericia's formula), TpTe (interval between the first peak and the end of the T wave), TAmp (amplitude of the first peak of the T wave) and the presence of double peaks in the T wave (called notches) were quantified. The Fridericia correction (QTcF) was used to correct the QT with respect to the heart rate, in accordance with the ICH guidelines E14.
TpTe was measured using the tangent method, in triplicate, on a representative heart beat (averaged representation of an ECG of 10 seconds) on the V3, V4 and V5 derivations. In the event of a double peak of the T wave (notch), the peak taken into consideration was the first peak, even if the amplitude of the T wave was smaller for this peak. The average value obtained was retained. In the event of it being impossible to measure TpTe on V3, V4 or V5, the measurement was instead carried out on V2 (for V3), or V6 (for V4/V5).
In order to measure TAmp, positioning was on the site of the maximum amplitude of the first peak of the T wave on a representative beat (averaged representation of an ECG of 10 seconds) on the DII, V2 and V3 leads. The average of the TAmp values resulting from these three leads, and measured on three different ECGs of 10 seconds (in triplicate), was calculated and retained. If it was not possible to measure a TAmp on one of these leads (in particular because of a low value (<0.1 mV)), the V4 lead was used.
QTcF was measured using the tangent method on the DII lead for three consecutive beats and the average value of an evaluation in triplicate was retained.
For these parameters, the difference between the value obtained at H3 and the basal value was measured. This difference was expressed as percentage relative to the basal value, and the calculations were carried out such that the value calculated is positive.
The following calculations were therefore carried out: ΔQTcF (%)=(QTcF at H3−QTcF basal)/(QTcF basal)×100 ΔTpTe (%)=(TpTe at H3−TpTe basal)/(TpTe basal)×100 ΔTAmp (%)=(TAmp basal−TAmp at H3)/(TAmp basal)×100
In order to evaluate the double peaks (notches), all the ECGs were evaluated independently by two investigators. The patients were described as notchers or non-notchers, in the event of agreements between the two investigators.
The statistical analyses were carried out with the R software (https://www.r-project.org/).

torsades de pointes = assay: Clinical case: testosterone in a person with hypogonadism and arrhythmic storm on torsades de pointes (Example 3); type: in vivo, human
Method: Peripheral hypogonadism was identified in a person suffering from ischemic cardiopathy and from Erdheim-Chester disease with arrhythmic storm on torsades de pointes with long QT and notching (double peak (notch) of the T wave) promoted by iatrogenesis and bradycardia with more than seven episodes in less than one week.
Testosterone (Androtardyl, testosterone enantate 250 mg/ml) was administered to the patient in amounts which made it possible to maintain a testosterone level making it possible to correct their hypogonadism, the bradycardia was corrected and an implantable defibrillator was implanted as secondary prevention.

[6] = three hours after 80 mg sotalol, difference between groups (FIG. 3)
[7] = first of the two cohorts (exploration)
[8] = second of the two cohorts (replication)
[9] = three hours after single oral dose of 80 mg sotalol vs basal

T1 sequence (Q12809 whole entry): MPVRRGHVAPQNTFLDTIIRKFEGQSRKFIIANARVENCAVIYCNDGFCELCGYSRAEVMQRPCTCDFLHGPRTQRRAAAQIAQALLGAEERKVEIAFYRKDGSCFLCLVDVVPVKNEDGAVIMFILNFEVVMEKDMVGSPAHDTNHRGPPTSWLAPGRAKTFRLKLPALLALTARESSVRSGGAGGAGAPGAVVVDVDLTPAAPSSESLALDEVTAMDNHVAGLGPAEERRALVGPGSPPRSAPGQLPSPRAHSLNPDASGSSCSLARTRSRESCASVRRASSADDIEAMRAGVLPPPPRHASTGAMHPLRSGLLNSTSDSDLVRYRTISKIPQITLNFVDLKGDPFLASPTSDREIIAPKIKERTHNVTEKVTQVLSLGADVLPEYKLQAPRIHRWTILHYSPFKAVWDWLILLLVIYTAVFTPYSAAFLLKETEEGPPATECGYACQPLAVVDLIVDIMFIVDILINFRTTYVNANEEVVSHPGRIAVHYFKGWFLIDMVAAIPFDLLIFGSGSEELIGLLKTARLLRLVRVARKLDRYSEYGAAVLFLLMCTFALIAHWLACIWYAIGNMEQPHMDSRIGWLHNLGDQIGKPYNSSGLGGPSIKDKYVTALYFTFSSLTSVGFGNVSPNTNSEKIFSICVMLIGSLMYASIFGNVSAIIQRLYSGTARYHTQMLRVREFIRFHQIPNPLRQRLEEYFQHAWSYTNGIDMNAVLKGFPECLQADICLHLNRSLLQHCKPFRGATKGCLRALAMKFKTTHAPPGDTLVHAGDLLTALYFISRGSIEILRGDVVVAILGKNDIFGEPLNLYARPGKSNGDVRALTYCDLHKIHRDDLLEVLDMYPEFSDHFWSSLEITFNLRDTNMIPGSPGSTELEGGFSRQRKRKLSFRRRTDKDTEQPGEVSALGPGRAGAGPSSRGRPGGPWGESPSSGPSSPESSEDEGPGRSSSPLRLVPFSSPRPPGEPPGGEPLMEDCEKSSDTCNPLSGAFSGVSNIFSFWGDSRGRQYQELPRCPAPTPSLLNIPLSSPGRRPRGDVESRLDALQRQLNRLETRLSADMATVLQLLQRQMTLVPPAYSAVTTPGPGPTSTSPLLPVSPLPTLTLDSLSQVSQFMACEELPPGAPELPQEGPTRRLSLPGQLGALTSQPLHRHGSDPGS

C#C[C@]1(O)CC[C@H]2[C@@H]3CCC4=CCCC[C@@H]4[C@H]3C(=C)C[C@@]21CC [desogestrel]
incidence of double peaks (notches) (IKr potassium channel [1]; female, human, in vivo, 3 h): 7.3%
effect with regard to the appearance of a double peak (notch) of the T wave (IKr potassium channel [1]; in vivo): protective
risk of drug-induced IKr inhibition (IKr potassium channel [1]; in vivo): neutral
Progestogenic activity [2]: High

C[C@]12CCC3=C4CCC(=O)C=C4CC[C@H]3[C@@H]1CC[C@@]2(O)CC#N [dienogest]
Androgenicity [3]: low androgenic activity, or even an anti-androgenic activity

C[C@]12CCC(=O)C=C1[C@@H]1C[C@@H]1[C@H]1[C@@H]3[C@@H]4C[C@@H]4[C@@]4(CCC(=O)O4)[C@@]3(C)CC[C@@H]12 [drospirenone]
risk of drug-induced IKr inhibition (IKr potassium channel [1]; conclusion in words, by pill type): greatest risk
increase in QTcF greater than that of patients taking levonorgestrel (IKr potassium channel [1]; [6]): 7.0 ± 2.7 ms
increase in QTcF greater than that of patients without hormonal contraception (IKr potassium channel [1]; [6]): 6.6 ± 2.6 ms
incidence of double peaks (notches) (IKr potassium channel [1]; three hours after administration of Sotalol, by pill type (FIG. 4)): 25.8%
Progestogenic activity [2]: Intermediate

C#C[C@]1(O)C=C[C@H]2[C@@H]3CCC4=CC(=O)CC[C@@H]4[C@H]3CC[C@@]21CC [gestodene]
Androgenicity [3]: Intermediate/variable
incidence of double peaks (notches) (IKr potassium channel [1]; female, human, in vivo, 3 h): 23.5%
Progestogenic activity [2]: High

C#C[C@]1(O)CC[C@H]2[C@@H]3CCC4=CC(=O)CC[C@@H]4[C@H]3CC[C@@]21CC [levonorgestrel]
effect with regard to the increase in QT (IKr potassium channel [1]; conclusion in words): protective
incidence of double peaks (notches) (IKr potassium channel [1]; female, human, in vivo, 3 h): 16.4%
risk of drug-induced IKr inhibition (IKr potassium channel [1]; in vivo): neutral
Progestogenic activity [2]: High

CC(=O)[C@H]1CC[C@H]2[C@@H]3CCC4=CC(=O)CC[C@]4(C)[C@H]3CC[C@]12C [progesterone]
effect on sudden death [4]: protective effect

CC(C)NCC(O)c1ccc(NS(C)(=O)=O)cc1 (centres unmarked) [sotalol]
decrease in TAmp (IKr potassium channel [5]; exploration cohort): 13.6±15.7%
increase in TpTe (IKr potassium channel [5]; exploration cohort): 14.2±15.6%
subjects exhibiting a double peak (notch) (IKr potassium channel [5]; [7]): 40 subjects
subjects exhibiting a double peak (notch), proportion (IKr potassium channel [5]; [7]): 8%
PC1 value (IKr potassium channel [5]; non-notchers, exploration cohort): 0.3±1.1
PC1 value (IKr potassium channel [5]; non-notchers, replication cohort): 0.3±1.1
PC1 value (IKr potassium channel [5]; notchers, exploration cohort, PC1 correlates negatively with ΔQTc, ΔTAmp, ΔTpTe): −2.5±1.5
PC1 value (IKr potassium channel [5]; notchers, replication cohort): −2.3±1.8
decrease in TAmp (IKr potassium channel [5]; replication cohort): 12.8±15.3%
increase in TpTe (IKr potassium channel [5]; replication cohort): 15.9±20.5%
subjects exhibiting a double peak (notch) (IKr potassium channel [5]; [8]): 51 subjects
subjects exhibiting a double peak (notch), proportion (IKr potassium channel [5]; [8]): 10%
absolute change in the duration of QTcF (IKr potassium channel [5]; [9]): 21.4 ± 14 ms
relative change in the duration of QTcF (IKr potassium channel [5]; [9]): 5.5±3.5%
average QTc increase observed with sotalol (IKr potassium channel [1]; study of the present application, as summarised): 20 ms

CCCCCCC(=O)O[C@H]1CC[C@H]2[C@@H]3CCC4=CC(=O)CC[C@]4(C)[C@H]3CC[C@]12C [testosterone, testosterone enantate]
repolarization (torsades de pointes; following the introduction of testosterone, one patient): normalized
recurrence of torsades de pointes (defibrillator monitoring) (torsades de pointes; three months following the introduction of testosterone, despite reintroduction of QTc-prolonging drug (Vemurafenob)): absence of recurrence of torsades de pointes
